Experimental data from patent US20160159814A1, “GLYCINE TRANSPORTER INHIBITOR” (TAISHO PHARMACEUTICAL CO., LTD., priority 2013, published 2016).
pIC50: −log10 of the molar value.

Each molecule was assayed against T1, human type 1 glycine transporter (GlyT1) (Homo sapiens, UniProt P48067) (assay: Glycine uptake inhibition experiment ([3H] glycine uptake in T98G cells expressing GlyT1)). Settings: not given.
T1 construct: T98G cells (glioma cells) expressing human type 1 glycine transporter (GlyT1) were used; endogenous in cells; host or cells: T98G cells (human glioma cells)
T1 sequence (P48067 1-706): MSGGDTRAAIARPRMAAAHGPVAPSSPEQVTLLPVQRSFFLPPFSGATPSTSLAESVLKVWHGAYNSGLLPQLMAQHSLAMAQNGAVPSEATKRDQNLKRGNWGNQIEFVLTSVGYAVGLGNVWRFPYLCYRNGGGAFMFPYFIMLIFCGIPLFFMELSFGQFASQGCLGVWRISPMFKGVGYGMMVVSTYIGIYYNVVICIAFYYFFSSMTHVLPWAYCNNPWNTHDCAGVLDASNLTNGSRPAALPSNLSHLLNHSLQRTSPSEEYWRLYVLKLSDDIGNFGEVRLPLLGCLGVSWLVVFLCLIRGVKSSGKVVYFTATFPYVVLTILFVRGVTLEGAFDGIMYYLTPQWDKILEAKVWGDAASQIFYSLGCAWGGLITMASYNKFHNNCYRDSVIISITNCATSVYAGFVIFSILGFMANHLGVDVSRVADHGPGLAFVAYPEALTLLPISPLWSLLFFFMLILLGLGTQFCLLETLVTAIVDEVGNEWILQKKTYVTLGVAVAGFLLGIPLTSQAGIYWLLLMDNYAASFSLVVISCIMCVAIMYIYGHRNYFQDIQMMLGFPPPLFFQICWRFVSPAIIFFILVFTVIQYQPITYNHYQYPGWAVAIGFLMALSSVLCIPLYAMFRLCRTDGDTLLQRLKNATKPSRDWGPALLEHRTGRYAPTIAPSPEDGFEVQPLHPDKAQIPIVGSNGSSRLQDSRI
Assay type: cell-based
How it was run: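 T98G glioma cells expressing human GlyT1 were pretreated 10 min with compound in HEPES buffer pH 7.4 (0.2% BSA), then incubated with compound plus 250 nM final [3H]glycine for 15 min at room temperature. Intracellular radioactivity was counted after NaOH lysis; 10 μM ALX5407 defined non-specific uptake. IC50 came from 10^−9–10^−5 M curves.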

SMILES	pIC50
O=C1N(Cc2ccnc(OC(F)F)c2)c2cccc(C(O)C(F)F)c2C1(F)F (single isomer, unassigned) [Compound 218, 4-(2,2-difluoro-1-hydroxyethyl)-1-{[2-(difluoromethoxy)pyridin-4-yl]methyl}-3,3-difluoro-1,3-dihydro-2H-indol-2-one]	8.00
CC(O)c1c(F)ccc2c1C(F)(F)C(=O)N2Cc1ccnc(C#N)c1 (single isomer, unassigned) [Compound 182, 4-{[3,3,5-trifluoro-4-(1-hydroxyethyl)-2-oxo-2,3-dihydro-1H-indol-1-yl]methyl}pyridine-2-carbonitrile]	5.77
C[C@H](O)c1cccc2c1C(F)(F)C(=O)N2Cc1ncccc1F [Compound 208, 3,3-difluoro-1-[(3-fluoropyridin-2-yl)methyl]-4-[(1S)-1-hydroxyethyl]-1,3-dihydro-2H-indol-2-one]	6.82
COc1cc(CN2C(=O)C(F)(F)c3c([C@H](C)O)cccc32)cnc1F [Compound 240, 3,3-difluoro-1-[(6-fluoro-6-methoxypyridin-3-yl)methyl]-4-[(1S)-1-hydroxyethyl]-1,3-dihydro-2H-indol-2-one]	7.22
C[C@H](O)c1cccc2c1C(F)(F)C(=O)N2Cc1cncc(C2CC2)c1 [Compound 174, 1-[(5-cyclopropylpyridin-3-yl)methyl]-3,3-difluoro-4-[(1S)-1-hydroxyethyl]-1,3-dihydro-2H-indol-2-one]	7.02
C[C@H](O)c1cccc2c1C(F)(F)C(=O)N2Cc1ccc(F)c(Br)n1 [Compound 229, 1-[(6-bromo-5-fluoropyridin-2-yl)methyl]-3,3-difluoro-4-[(1S)-1-hydroxyethyl)-1,3-dihydro-2H-indol-2-one]	8.77
C[C@H](O)c1cccc2c1C(F)(F)C(=O)N2Cc1cc(C(F)(F)F)c(Cl)cn1 [Compound 212, 1-{[5-chloro-4-(trifluoromethyl)pyridin-2-yl]methyl}-3,3-difluoro-4-[(1S)-1-hydroxyethyl]-1,3-dihydro-2H-indol-2-one]	8.09
O=C1N(Cc2cncc(Cl)c2)c2c(F)ccc(C(O)C(F)F)c2C1(F)F (single isomer, unassigned) [Compound 254, 1-[(5-chloropyridin-3-yl)methyl]-4-(2,2-difluoro-1-hydroxyethyl)-3,3,7-trifluoro-1,3-dihydro-2H-indol-2-one]	5.17
C[C@H](O)c1cccc2c1C(F)(F)C(=O)N2Cc1ccc(C(F)(F)F)c(Cl)n1 [Compound 238, 1-{[6-chloro-5-(trifluoromethyl)pyridin-2-yl]methyl}-3,3-difluoro-4-[(1S)-1-hydroxyethyl]-1,3-dihydro-2H-indol-2-one]	8.21
C[C@H](O)c1cccc2c1C(F)(F)C(=O)N2Cc1ccc(Cl)nc1Cl [Compound 224, 1-[(2,6-dichloropyridin-3-yl)methyl]-3,3-difluoro-4-[(1S)-1-hydroxyethyl]-1,3-dihydro-2H-indol-2-one]	6.13
N#Cc1cc(CN2C(=O)C(F)(F)c3c(C(O)C(F)F)cccc32)c(F)cn1 (single isomer, unassigned) [Compound 219, 4-{[4-(2,2-difluoro-1-hydroxyethyl)-3,3-difluoro-2-oxo-2,3-dihydro-1H-indol-1-yl]methyl)-5-fluoropyridine-2-carbonitrile]	6.74

Same assay, conditions: glycine uptake inhibition

SMILES	pIC50
C[C@H](O)c1cccc2c1C(F)(F)C(=O)N2Cc1nc2cnccc2c(=O)n1C [Compound 111, 2-({3,3-difluoro-4-[(1s)-1-hydroxyethyl]-2-oxo-2,3-dihydro-1H-indol-1-yl}methyl)-3-methylpyrido[3,4-d]pyrimidin-4(3H)-one]	6.89
CC(O)c1cccc2c1C(F)(F)C(=O)N2Cc1nc2ccccc2c(=O)n1C (centres unmarked) [Compound 30, 2-{[3,3-difluoro-4-(1-hydroxyethyl)-2-oxo-2,3-dihydro-1H-indol-1-yl]methyl)-3-methylquinazolin-4(3H)-one]	7.27
C[C@H](O)c1cccc2c1C(F)(F)C(=O)N2Cc1nc2cc(F)ccc2c(=O)n1C [Compound 132, 2-({3,3-difluoro-4-[(1S)-1-hydroxyethyl]-2-oxo-2,3-dihydro-1H-indol-1-yl}methyl)-7-fluoro-3-methylquinazolin-4(3H)-one]	7.74
C[C@@H](O)c1cccc2c1C(F)(F)C(=O)N2Cc1ccnc(F)c1 [Compound 43, 3,3-difluoro-1-[(2-fluoropyridin-4-yl)methyl]4-[(1R)-1-hydroxyethyl]-1,3-dihydro-2H-indol-2-one]	5.36
O=C1N(Cc2cccc(Cl)n2)c2cccc(C(O)CF)c2C1(F)F (centres unmarked) [Compound 11, 1-[(6-chloropyridin-2-yl)methyl]-3,3-difluoro-4-(2-fluoro-1-hydroxyethyl)-1,3-dihydro-2H-indol-2-one]	7.77
C[C@H](O)c1cccc2c1C(F)(F)C(=O)N2Cc1cc(C(F)(F)F)ccn1 [Compound 96, 3,3-difluoro-4-[(1S)-1-hydroxyethyl]-1-{[4-(trifluoromethyl)pyridin-2-yl]methyl}-1,3-dihydro-2H-indol-2-one]	7.29
C[C@H](O)c1cccc2c1C(F)(F)C(=O)N2Cc1ccc(Cl)cn1 [Compound 103, 1-[(5-chloropyridin-2-yl)methyl]-3,3-difluoro-4-[(1S)-1-hydroxyethyl]-1,3-dihydro-2H-indol-2-one]	7.36
N#Cc1cc(CN2C(=O)C(F)(F)c3c(C(O)C(F)F)cccc32)ccn1 (single isomer, unassigned) [Compound 110, 4-{[4-(2,2-difluoro-1-hydroxyethyl)-3,3-difluoro-2-oxo-2,3-dihydro-1H-indol-1-yl]methyl}pyridine-2-carbonitrile]	5.68
O=C1N(Cc2cccc(Cl)n2)c2cccc(C(O)C(F)(F)F)c2C1(F)F (centres unmarked) [Compound 2, 1-[(6-chloropyridin-2-yl)methyl]-3,3-difluoro-4-(2,2,2-trifluoro-1-hydroxyethyl)-1,3-dihydro-2H-indol-2-one]	7.29
COc1cccc(CN2C(=O)C(F)(F)c3c([C@H](C)O)cccc32)c1 [Compound 59, 3,3-difluoro-4-[(1S)-1-hydroxyethyl]-1-(3-methoxybenzyl)-1,3-dihydro-2H-indol-2-one]	7.74
O=C1N(Cc2cccc(Cl)n2)c2cccc(C3(O)COC3)c2C1(F)F [Compound 25, 1-[(6-chloropyridin-2-yl)methyl]-3,3-difluoro-4-(3-hydroxyoxetan-3-yl)-1,3-dihydro-2H-indol-2-one]	5.12
O=C1N(Cc2ccc(F)nc2)c2cccc([C@@H](O)C(F)(F)F)c2C1(F)F [Compound 155, 3,3-difluoro-1-[(6-fluoropyridin-3-yl)methyl]-4-[(1R)-2,2,2-trifluoro-1-hydroxyethyl]-1,3-dihydro-2H-indol-2-one]	6.74
O=C1N(Cc2cccc(Cl)n2)c2cccc(C3(O)CCC3)c2C1(F)F [Compound 24, 1-[(6-chloropyridin-2-yl)methyl]-3,3-difluoro-4-(1-hydroxycyclobutyl)-1,3-dihydro-2H-indol-2-one]	5.23
C[C@H](O)c1cccc2c1C(F)(F)C(=O)N2Cc1ccccc1 [Compound 54, 1-benzyl-3,3-difluoro-4-[(1S)-1-hydroxyethyl]-1,3-dihydro-2H-indol-2-one]	7.70
C[C@H](O)c1cccc2c1C(F)(F)C(=O)N2Cc1ccc2ncccc2n1 [Compound 78, 3,3-difluoro-4-[(1S)-1-hydroxyethyl]-1-(1,5-naphthyridin-2-ylmethyl)-1,3-dihydro-2H-indol-2-one]	6.49
